Assay results published in patent publication US4558054A, “Spasmolytic endo-8,8-dialkyl-8-azoniabicyclo (3.2.1) octane-6,7-exo-epoxy-3-alkyl-carboxylate salts” (priority 1983, dated 1985).
Read-outs that look alike come from different tables or passages of the source.

Columns and labels:
[1] = Intestinal transit in the mouse (inhibition of progression of opaque meal); conditions: in vivo, ip
Protocol: (§1) 3. Intestinal transit in the mouse
(§2) 3. intestinal transit in the mouse
(§3) An evaluation was made on the capacity of the studied compounds to inhibit the progression of an opaque meal 15 minutes after their intraperitoneal administration into the mouse. This test is indicative of undesirable side effects.
(§4) The method followed was the classical method of Janssen and Jageneau [Janssen P. A., Jageneau A. H., J. Pharm. Pharmacol. 9, 381 (1957)], by which the doses which inhibit the progression of the opaque meal through the small intestine by 50% (ED50) relative to the controls were calculated.
(§5) Activity affecting intestinal transit in the mouse after intra-
(§6) peritonal administration 15 minutes before taking the opaque

[2] = tested on: mouse pupil (basal pupillary diameter); assay: Mydriatic activity in the mouse; assay type: in vivo; conditions: for mydriatic activity lower than atropine methyl bromide: vs atropine methyl bromide
Protocol: 4. Mydriatic activity in the mouse
The dose able to increase the basal pupillary diameter by 150% (ED150)15 minutes, 30 minutes, 60 minutes and 120 minutes after intraperitoneal administration of the compounds into the mouse was calculated.
Mydriatic activity evaluated in the mouse 15 minutes, 30 minutes, 60
minutes after intraperitoneal administration

[3] = Acute toxicity in the mouse; assay type: in vivo; conditions: mouse, in vivo, ip; male mice (Swiss stock); Litchfield and Wilcoxon
Protocol: (§7) 5. Acute toxicity in the mouse
(§8) The acute toxicity of the compounds according to the invention was evaluated in comparison with that of Buscopan, atropine methyl bromide and syntropium bromide, after intraperitoneal administration in male mice (Swiss stock).
(§9) The LD50, the values of which together with the relative confidence limits (P=0.05) are given in Table 6, was calculated by the Litchfield and Wilcoxon method [Litchfield J. T., Wilcoxon F. A., J. Pharmac. Exp. Theor., 96, 99 (1949)].
(§10) Acute toxicity in the mouse after intraperitoneal administration

[4] = tested on: isolated rat ileum (antagonist barium chloride); assay: Isolated rat ileum, spasmolytic (direct myolytic) activity vs barium chloride, pA2; assay type: cell-based; design: key to pA2, spasmolytic effect: pA2 = −log molar antagonist conc. halving BaCl2-induced contraction; conditions: for pA2, spasmolytic effect: isolated rat ileum, barium chloride, 6 experiments, confidence limits P = 0.05; for direct myolytic activity relative to Buscopan: Buscopan activity = 1; for spasmolytic activity in words, rat ileum: compared with Buscopan; for Activity ratio: with respect to Buscopan (=1), antilogarithm of pA2 difference
Excerpt: 1. Isolated rat ileum (antagonist barium chloride)
The spasmolytic activity of the compounds reported in Table 1 were studied firstly in a comparison with Buscopan (scopolamine butyl bromide), using the isolated rat ileum, by the classical Magnus method [Magnus and coll., Pflugers Gas. Physiol., 102, 123 (1904)], of which the smooth muscle was subjected to direct stimulation by barium chloride. The evaluation of this activity was made by the method involving the pA2 determination [Schild H. G., Brit. J. Pharmacol., 2, 189, (1947)]. The pA2 value is the negative logarithm of the molar concentration of the antagonist able to reduce the contraction induced by the antagonist (barium chloride) by 50%.
Spasmolytic effect evaluated on the isolated rat ileum with barium
chloride as antagonist, and expressed as the pA2 value.

[5] = target: T1, isolated guinea pig ileum (antagonist acetyl choline) (Cavia porcellus, UniProt H0W1Z3); assay: Isolated guinea pig ileum, antimuscarinic activity vs acetyl choline, pA2; assay type: cell-based; conditions: for antimuscarinic spasmolytic activity in words, compared with Buscopan / spasmolytic activity relative to Buscopan: vs Buscopan; for antimuscarinic activity in words, compared with atropine: vs atropine
T1 construct: antimuscarinic activity using the isolated guinea pig ileum; from tissue; host or cells: isolated guinea pig ileum
T1 sequence (H0W1Z3 1-590): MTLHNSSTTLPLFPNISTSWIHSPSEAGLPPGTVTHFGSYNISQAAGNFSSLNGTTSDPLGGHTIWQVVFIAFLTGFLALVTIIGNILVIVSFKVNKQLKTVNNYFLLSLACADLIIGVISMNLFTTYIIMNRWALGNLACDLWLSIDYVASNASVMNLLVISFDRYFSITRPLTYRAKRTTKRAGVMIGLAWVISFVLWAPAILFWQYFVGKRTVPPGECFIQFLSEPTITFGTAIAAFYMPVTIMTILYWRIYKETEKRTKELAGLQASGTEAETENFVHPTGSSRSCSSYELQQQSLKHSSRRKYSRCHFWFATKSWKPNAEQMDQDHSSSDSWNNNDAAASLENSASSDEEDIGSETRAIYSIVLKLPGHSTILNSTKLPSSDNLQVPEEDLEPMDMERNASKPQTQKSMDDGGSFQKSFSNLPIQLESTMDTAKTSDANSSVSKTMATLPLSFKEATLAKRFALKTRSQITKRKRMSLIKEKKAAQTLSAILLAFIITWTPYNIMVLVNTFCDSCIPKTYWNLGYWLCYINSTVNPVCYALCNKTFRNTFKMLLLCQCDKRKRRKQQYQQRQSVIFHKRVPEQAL
Protocol: (§11) 2. Isolated guinea pig ileum (antagonist acetyl choline)
(§12) 2. Isolated guinea pig ileum
(§13) All the compounds were also tested for antimuscarinic activity using the isolated guinea pig ileum, with acetyl choline as antagonist.
(§14) The potency of action was evaluated by calculating the pA2 values, as in the case of the direct myolytic activity evaluated on the isolated rat ileum.
(§15) Antimuscarinic activity evaluated on the isolated guinea pig ileum
(§16) with acetyl choline as antagonist, expressed as pA2 value.

[6] = tested on: T2, isolated guinea pig ileum (antagonist acetyl choline) (Cavia porcellus); assay: as above; assay type: cell-based; conditions: with respect to Buscopan (=1)
T2 construct: antimuscarinic activity using the isolated guinea pig ileum; from tissue; host or cells: isolated guinea pig ileum
T2 sequence (H0W1Z3 1-590): as above
Protocol: as §11, §12, §13, §14, §15, §16

[7] = tested on: intestinal transit in the mouse; assay: Intestinal transit in the mouse (inhibition of progression of opaque meal); conditions: in vivo, ip
Protocol: as §1, §2, §3, §4, §5, §6

mouse = assay: Acute toxicity in the mouse; assay type: in vivo; conditions: compared with reference standards / Buscopan
Protocol: as §7, §8, §9, §10

[8] = Overall pharmacological screening (spasmolytic activity and side effects); conditions: intestinal transit and mydriatic effect in the mouse
Protocol: The study was conducted using the following in vitro and in vivo tests, each time in comparison with Buscopan, atropine methyl bromide and syntropium bromide: […]

[9] = mouse, i.p., 150% increase of basal pupillary diameter
[10] = isolated guinea pig ileum, acetyl choline, 6 experiments, confidence limits P = 0.05, read-out: pA2, antimuscarinic activity (converted)

Structure (SMILES) | ED50 [1] [mg/kg] | ED150 after 15 min [2, 9] [mg/kg/i.p.] | ED150 after 30 min [2, 9] [mg/kg/i.p.] | ED150 after 60 min [2, 9] [mg/kg/i.p.] | LD50 [3] [mg/kg] | pA2, spasmolytic effect [4] | spasmolytic activity in words, rat ileum [4] | Activity ratio [4] | Activity ratio [6] | Kb [5] [µM] | acute toxicity in words (mouse) | further results
C[N+]1(C)[C@@H]2CC[C@H]1C[C@@H](OC(=O)C(CO)c1ccccc1)C2 (stereo partly drawn) [Atropine MeBr, atropine methyl bromide] | 52.1 | 0.030 | 0.030 | 0.052 | 75 |  |  |  |  |  |  | 
CCCC[N+]1(C)[C@@H]2C[C@@H](OC(=O)[C@H](CO)c3ccccc3)C[C@H]1[C@@H]1O[C@@H]12 (stereo partly drawn) [Buscopan, scopolamine butyl bromide] | 51.7 | 3.24 | 3.29 | 3.66 | 65 | 6.84 |  |  |  |  |  | Kb [5, 10]: 0.0468 µM; mydriatic activity over time, in words ([2]; mouse, i.p.): still possesses activity 120 minutes after its administration; ED150 after 120 min ([2]; mouse, i.p., 150% increase of basal pupillary diameter, 120 min): 5.32 mg/kg/i.p.
CCCC(CCC)C(=O)O[C@@H]1C[C@@H]2[C@H]3O[C@H]3[C@H](C1)[N+]2(C)C [No. 2, endo-8,8-dimethyl-8-azoniabicyclo[3.2.1]octane-6,7-exo-epoxy-3-(2-propyl)pentanoate bromide] | 79 | 0.21 | 0.42 | 1.46 | 93.5 | 8.06 | decidedly greater than those of Buscopan | 16.6 | 4.27 | 0.011 | decidedly lower toxicity | direct myolytic activity relative to Buscopan [4]: 16.6 times; antimuscarinic spasmolytic activity in words, compared with Buscopan [5]: decidedly greater than those of Buscopan; spasmolytic activity relative to Buscopan [5]: 4.27 times; antimuscarinic activity in words, compared with atropine [5]: approaches that of atropine itself; antimuscarinic activity in words, compared with syntropium bromide ([5]; vs syntropium bromide): much higher than; reduction of intestinal transit in words [7]: reduce intestinal transit to a decidedly lesser extent; mydriatic activity lower than atropine methyl bromide [2]: 10 times less; side effects in words [8]: lesser level of side effects
CCCC(CCC)C(=O)O[C@@H]1C[C@@H]2[C@H]3O[C@H]3[C@H](C1)[N@+]2(C)CC [No. 5, endo-8-methyl-8-syn-ethyl-8-azoniabicyclo[3.2.1]octane-6,7-exo-epoxy-3-(2-propyl)pentanoate bromide] | 73.2 | 2.17 | 6.16 |  | 74 | 7.73 | decidedly greater than those of Buscopan | 7.8 | 2.25 | 0.0191 | lower toxicity | direct myolytic activity relative to Buscopan [4]: 7.8 times; antimuscarinic spasmolytic activity in words, compared with Buscopan [5]: decidedly greater than those of Buscopan; spasmolytic activity relative to Buscopan [5]: 2.45 times; antimuscarinic activity in words, compared with atropine [5]: approaches that of atropine itself; reduction of intestinal transit in words [7]: reduce intestinal transit to a decidedly lesser extent; mydriatic activity lower than atropine methyl bromide [2]: > 100 times less; side effects in words [8]: lesser level of side effects
CCCC(CCC)C(=O)O[C@@H]1C[C@@H]2[C@H]3O[C@H]3[C@H](C1)[N@+]2(C)C(C)C [No. 8, endo-8-methyl-8-syn-(1-methyl)ethyl-8-azoniabicyclo[3.2.1]octane-6,7-exo-epoxy-3-(2-propyl)pentanoate bromide] | ~69 |  |  |  | 78 | 5.72 | good spasmolytic activity | 0.08 | 0.15 | 0.302 |  | 
CCCC[N@+]1(C)[C@@H]2C[C@@H](OC(=O)C(CCC)CCC)C[C@H]1[C@@H]1O[C@@H]12 [No. 10, endo-8-methyl-8-syn-butyl-8-azoniabicyclo[3.2.1]octane-6,7-exo-epoxy-3-(2-propyl)pentanoate bromide] | ~85 |  |  |  | 105 |  |  |  |  |  | decidedly lower toxicity | 
CCCC(CCC)C(=O)O[C@@H]1C[C@@H]2[C@H]3O[C@H]3[C@H](C1)[N@@+]2(C)CC [No. 12, endo-8-methyl-8-anti-ethyl-8-azoniabicyclo[3.2.1]octane-6,7-exo-epoxy-3-(2-propyl)pentanoate bromide] | 42.2 |  |  |  | 72 | 6.66 | activity similar to that of Buscopan | 0.7 | 0.50 | 0.0933 |  | activity lower than Buscopan ([4]; vs Buscopan): 1.5 times lower
CCCC(CCC)C(=O)OC1CC2CCC(C1)[N+]2(C)C(C)C (stereo not drawn) [Syntropium Br, syntropium bromide, reference compound] |  |  |  |  | 65 |  |  |  | 2.57 |  |  | Kb [5, 10]: 0.0182 µM; ED50 ([1]; 15 minutes before opaque meal, indicative of side effects, read-out: ED50, inhibition of progression of opaque meal by 50%): 29.8 mg/kg
